System: yeast genes (expressed mRNA)
Experiment: DNA chip measurement of expressed mRNA of yeast genes after culture with a toxic chemical substance
Format: cell-based, Saccharomyces cerevisiae S288C
Conditions: for level of expressed mRNA in the presence of chemical substance / level in the absence of chemical substance: cultured two hours with the chemical substance; for The level of expressed mRNA in the presence of chemical substance/The level of expressed mRNA in the absence of chemical substance: cultured two hours with substance
In short: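 Fluorescence ratio, treated over untreated, read by chip scanner; ratio of two or more counted significant. Cells: S288C yeast, YPD, 25° C, chemical added at log phase for 2 h at growth-inhibiting, sublethal level. Cy3/Cy5-labeled cDNA from oligo-dT-purified mRNA.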

SMILES: [Cl][Hg][Cl] [(3), HgCl2]
- The level of expressed mRNA in the presence of chemical substance/The level of expressed mRNA in the absence of chemical substance, yeast gene YBR036C (gene YBR036C, Metabolism protein genes, DNA chip fluorescence ratio): 1.8
- The level of expressed mRNA in the presence of chemical substance/The level of expressed mRNA in the absence of chemical substance, yeast gene YBR298C (gene YBR298C, Metabolism protein genes, DNA chip fluorescence ratio): 1.6
- The level of expressed mRNA in the presence of chemical substance/The level of expressed mRNA in the absence of chemical substance, yeast gene YDL067C (gene YDL067C (mitochondria-located protein gene), yeast cultured two hours with chemical substance, DNA chip fluorescence ratio to control): 1.6
- The level of expressed mRNA in the presence of chemical substance/The level of expressed mRNA in the absence of chemical substance, yeast gene YDL078C (gene YDL078C, Metabolism protein genes, DNA chip fluorescence ratio): 1.2
- The level of expressed mRNA in the presence of chemical substance/The level of expressed mRNA in the absence of chemical substance, yeast gene YDL215C (gene YDL215C, Metabolism protein genes, DNA chip fluorescence ratio): 1.0
- The level of expressed mRNA in the presence of chemical substance/The level of expressed mRNA in the absence of chemical substance, yeast gene YDR079W (gene YDR079W (mitochondria-located protein gene), yeast cultured two hours with chemical substance, DNA chip fluorescence ratio to control): 0.8
- The level of expressed mRNA in the presence of chemical substance/The level of expressed mRNA in the absence of chemical substance, yeast gene YDR297W (gene YDR297W, Metabolism protein genes, DNA chip fluorescence ratio): 0.8
- The level of expressed mRNA in the presence of chemical substance/The level of expressed mRNA in the absence of chemical substance, yeast gene YDR387C (gene YDR387C, Metabolism protein genes, DNA chip fluorescence ratio): 1.2
- The level of expressed mRNA in the presence of chemical substance/The level of expressed mRNA in the absence of chemical substance, yeast gene YGL035C (gene YGL035C, Metabolism protein genes, DNA chip fluorescence ratio): 4.3
- The level of expressed mRNA in the presence of chemical substance/The level of expressed mRNA in the absence of chemical substance, yeast gene YGR062C (gene YGR062C (mitochondria-located protein gene), yeast cultured two hours with chemical substance, DNA chip fluorescence ratio to control): 0.7
- The level of expressed mRNA in the presence of chemical substance/The level of expressed mRNA in the absence of chemical substance, yeast gene YGR287C (gene YGR287C, Metabolism protein genes, DNA chip fluorescence ratio): 1.3
- The level of expressed mRNA in the presence of chemical substance/The level of expressed mRNA in the absence of chemical substance, yeast gene YJL070C (gene YJL070C, Metabolism protein genes, DNA chip fluorescence ratio): 1.1
- The level of expressed mRNA in the presence of chemical substance/The level of expressed mRNA in the absence of chemical substance, yeast gene YJL096W (gene YJL096W (mitochondria-located protein gene), yeast cultured two hours with chemical substance, DNA chip fluorescence ratio to control): 0.8
- The level of expressed mRNA in the presence of chemical substance/The level of expressed mRNA in the absence of chemical substance, yeast gene YJL180C (gene YJL180C (mitochondria-located protein gene), yeast cultured two hours with chemical substance, DNA chip fluorescence ratio to control): 1.1
- The level of expressed mRNA in the presence of chemical substance/The level of expressed mRNA in the absence of chemical substance, yeast gene YKR009C (gene YKR009C, Metabolism protein genes, DNA chip fluorescence ratio): 1.5
- The level of expressed mRNA in the presence of chemical substance/The level of expressed mRNA in the absence of chemical substance, yeast gene YLR295C (gene YLR295C (mitochondria-located protein gene), yeast cultured two hours with chemical substance, DNA chip fluorescence ratio to control): 1.1
- The level of expressed mRNA in the presence of chemical substance/The level of expressed mRNA in the absence of chemical substance, yeast gene YLR351C (gene YLR351C, Metabolism protein genes, DNA chip fluorescence ratio): 1.3
- The level of expressed mRNA in the presence of chemical substance/The level of expressed mRNA in the absence of chemical substance, yeast gene YLR375W (gene YLR375W, Metabolism protein genes, DNA chip fluorescence ratio): 0.9
- The level of expressed mRNA in the presence of chemical substance/The level of expressed mRNA in the absence of chemical substance, yeast gene YMR023C (gene YMR023C (mitochondria-located protein gene), yeast cultured two hours with chemical substance, DNA chip fluorescence ratio to control): 0.5
- The level of expressed mRNA in the presence of chemical substance/The level of expressed mRNA in the absence of chemical substance, yeast gene YMR267W (gene YMR267W (mitochondria-located protein gene), yeast cultured two hours with chemical substance, DNA chip fluorescence ratio to control): 0.7
- The level of expressed mRNA in the presence of chemical substance/The level of expressed mRNA in the absence of chemical substance, yeast gene YMR267W (gene YMR267W, Metabolism protein genes, DNA chip fluorescence ratio): 0.7
- The level of expressed mRNA in the presence of chemical substance/The level of expressed mRNA in the absence of chemical substance, yeast gene YMR278W (gene YMR278W, Metabolism protein genes, DNA chip fluorescence ratio): 1.4
- The level of expressed mRNA in the presence of chemical substance/The level of expressed mRNA in the absence of chemical substance, yeast gene YMR293C (gene YMR293C, Metabolism protein genes, DNA chip fluorescence ratio): 1.6
- The level of expressed mRNA in the presence of chemical substance/The level of expressed mRNA in the absence of chemical substance, yeast gene YNL073W (gene YNL073W (mitochondria-located protein gene), yeast cultured two hours with chemical substance, DNA chip fluorescence ratio to control): 0.9
- The level of expressed mRNA in the presence of chemical substance/The level of expressed mRNA in the absence of chemical substance, yeast gene YNR072W (gene YNR072W, Metabolism protein genes, DNA chip fluorescence ratio): 0.5
- The level of expressed mRNA in the presence of chemical substance/The level of expressed mRNA in the absence of chemical substance, yeast gene YOL096C (gene YOL096C, Metabolism protein genes, DNA chip fluorescence ratio): 1.2
- The level of expressed mRNA in the presence of chemical substance/The level of expressed mRNA in the absence of chemical substance, yeast gene YOR180C (gene YOR180C, Metabolism protein genes, DNA chip fluorescence ratio): 1.0
- The level of expressed mRNA in the presence of chemical substance/The level of expressed mRNA in the absence of chemical substance, yeast gene YOR316C (gene YOR316C (mitochondria-located protein gene), yeast cultured two hours with chemical substance, DNA chip fluorescence ratio to control): 1.5
- The level of expressed mRNA in the presence of chemical substance/The level of expressed mRNA in the absence of chemical substance, yeast gene YOR363C (gene YOR363C, Metabolism protein genes, DNA chip fluorescence ratio): 0.9
- The level of expressed mRNA in the presence of chemical substance/The level of expressed mRNA in the absence of chemical substance, yeast gene YPL040C (gene YPL040C (mitochondria-located protein gene), yeast cultured two hours with chemical substance, DNA chip fluorescence ratio to control): 0.8
- The level of expressed mRNA in the presence of chemical substance/The level of expressed mRNA in the absence of chemical substance, yeast gene YPL134C (gene YPL134C (mitochondria-located protein gene), yeast cultured two hours with chemical substance, DNA chip fluorescence ratio to control): 1.6
- The level of expressed mRNA in the presence of chemical substance/The level of expressed mRNA in the absence of chemical substance, yeast gene YPR184W (gene YPR184W, Metabolism protein genes, DNA chip fluorescence ratio): 5.7
- level of expressed mRNA in the presence of chemical substance / level in the absence of chemical substance (yeast gene YAL018C): 1.1
- The level of expressed mRNA in the presence of chemical substance/The level of expressed mRNA in the absence of chemical substance (yeast gene YAL053W): 1.3
- level of expressed mRNA in the presence of chemical substance / level in the absence of chemical substance (yeast gene YAR047C): 1.5
- level of expressed mRNA in the presence of chemical substance / level in the absence of chemical substance (yeast gene YAR064W): 0.9
- level of expressed mRNA in the presence of chemical substance / level in the absence of chemical substance (yeast gene YBL044W): 2.1
- The level of expressed mRNA in the presence of chemical substance/The level of expressed mRNA in the absence of chemical substance (yeast gene YBL048W): 2.3
- The level of expressed mRNA in the presence of chemical substance/The level of expressed mRNA in the absence of chemical substance (yeast gene YBL107C): 0.4
- level of expressed mRNA in the presence of chemical substance / level in the absence of chemical substance (yeast gene YBR012C): 1.3
- level of expressed mRNA in the presence of chemical substance / level in the absence of chemical substance (yeast gene YBR066C): 1.6
- level of expressed mRNA in the presence of chemical substance / level in the absence of chemical substance (yeast gene YBR124W): 1.5
- level of expressed mRNA in the presence of chemical substance / level in the absence of chemical substance (yeast gene YBR162C): 3.1
- level of expressed mRNA in the presence of chemical substance / level in the absence of chemical substance (yeast gene YBR287W): 3.1
- level of expressed mRNA in the presence of chemical substance / level in the absence of chemical substance (yeast gene YCL042W): 7.2
- level of expressed mRNA in the presence of chemical substance / level in the absence of chemical substance (yeast gene YCL056C): 0.7
- level of expressed mRNA in the presence of chemical substance / level in the absence of chemical substance (yeast gene YCR007C): 0.9
- level of expressed mRNA in the presence of chemical substance / level in the absence of chemical substance (yeast gene YDL046W): 5.1
- The level of expressed mRNA in the presence of chemical substance/The level of expressed mRNA in the absence of chemical substance (yeast gene YDL072C): 3.5
- The level of expressed mRNA in the presence of chemical substance/The level of expressed mRNA in the absence of chemical substance (yeast gene YDL204W): 4.8
- The level of expressed mRNA in the presence of chemical substance/The level of expressed mRNA in the absence of chemical substance (yeast gene YDL222C): 1.5
- level of expressed mRNA in the presence of chemical substance / level in the absence of chemical substance (yeast gene YDR090C): 0.8

From patent US20100041089A1, “IMPROVED METHOD FOR DETECTING CHEMICAL […]” (priority 2006, published 2010)
